{"source": "ChEMBL document CHEMBL1137259", "about": "“Tubeimoside V (1), a new cyclic bisdesmoside from tubers of Bolbostemma paniculatum, functions by inducing apoptosis in human glioblastoma U87MG cells” (Bioorg Med Chem Lett, 2006)", "key": {"[1]": {"test_system": "U-87 MG", "experiment": "Antiproliferative activity against human U87MG cell line by MTT assay", "format": "functional, cell-based, U-87MG ATCC"}, "[2]": {"test_system": "U-87 MG", "experiment": "Cell cycle arrest in U87MG cells by accumulation at G0/G1 phase at 2.6 uM after 12 hrs", "format": "functional, Homo sapiens, U-87MG ATCC"}, "[3]": {"test_system": "U-87 MG", "experiment": "Induction of apoptosis measured as chromatin condensation in human U87MG cell line at 7.0 uM after 24 hrs by hoechst 33342 staining", "format": "functional, cell-based", "details": "U-87MG ATCC"}, "[4]": {"test_system": "U-87 MG", "experiment": "Induction of apoptosis assessed as phosphatidylserine externalization in human U87MG cell line at 7.0 uM after 24 hrs by annexinV/PI assay", "format": "functional, cell-based", "details": "U-87MG ATCC"}, "[5]": {"test_system": "U-87 MG", "experiment": "Induction of apoptosis measured as down regulation of Bcl2 expression in human U87MG cell line by Western blot analysis at 7.0 uM after 6 hrs", "format": "functional, cell-based", "details": "U-87MG ATCC"}, "[6]": {"test_system": "U-87 MG", "experiment": "Induction of apoptosis measured as up regulation of Bax expression in human U87MG cell line by Western blot analysis at 7.0 uM after 6 hrs", "format": "functional, cell-based", "details": "U-87MG ATCC"}, "[7]": {"test_system": "U-87 MG", "experiment": "Induction of apoptosis measured as down regulation of Bcl2 expression in human U87MG cell line by Western blot analysis at 7.0 uM after 24 hrs", "format": "functional, cell-based", "details": "U-87MG ATCC"}, "[8]": {"test_system": "U-87 MG", "experiment": "Induction of apoptosis measured as up regulation of Bax expression in human U87MG cell line by Western blot analysis at 7.0 uM after 24 hrs", "format": "functional, cell-based", "details": "U-87MG ATCC"}, "[9]": {"test_system": "U-87 MG", "experiment": "Cell cycle arrest in U87MG cells by accumulation at S phase at 2.6 uM after 12 hrs", "format": "functional, Homo sapiens, U-87MG ATCC"}, "[10]": {"test_system": "U-87 MG", "experiment": "Cell cycle arrest in U87MG cells by accumulation at G2/M phase at 2.6 uM after 12 hrs", "format": "functional, Homo sapiens, U-87MG ATCC"}, "[11]": {"test_system": "U-87 MG", "experiment": "Cell cycle arrest in U87MG cells by accumulation at SubG1 phase at 2.6 uM after 12 hrs", "format": "functional, Homo sapiens, U-87MG ATCC"}, "[12]": {"test_system": "U-87 MG", "experiment": "Cell cycle arrest in U87MG cells by accumulation at G0/G1 phase at 3.6 uM after 12 hrs", "format": "functional, Homo sapiens, U-87MG ATCC"}, "[13]": {"test_system": "U-87 MG", "experiment": "Cell cycle arrest in U87MG cells by accumulation at S phase at 3.6 uM after 12 hrs", "format": "functional, Homo sapiens, U-87MG ATCC"}, "[14]": {"test_system": "U-87 MG", "experiment": "Cell cycle arrest in U87MG cells by accumulation at G2/M phase at 3.6 uM after 12 hrs", "format": "functional, Homo sapiens, U-87MG ATCC"}, "[15]": {"test_system": "U-87 MG", "experiment": "Cell cycle arrest in U87MG cells by accumulation at SubG1 phase at 3.6 uM after 12 hrs", "format": "functional, Homo sapiens, U-87MG ATCC"}, "[16]": {"test_system": "U-87 MG", "experiment": "Cell cycle arrest in U87MG cells by accumulation at G0/G1 phase at 2.6 uM after 24 hrs", "format": "functional, Homo sapiens, U-87MG ATCC"}, "[17]": {"test_system": "U-87 MG", "experiment": "Cell cycle arrest in U87MG cells by accumulation at S phase at 2.6 uM after 24 hrs", "format": "functional, Homo sapiens, U-87MG ATCC"}, "[18]": {"test_system": "U-87 MG", "experiment": "Cell cycle arrest in U87MG cells by accumulation at G2/M phase at 2.6 uM after 24 hrs", "format": "functional, Homo sapiens, U-87MG ATCC"}, "[19]": {"test_system": "U-87 MG", "experiment": "Cell cycle arrest in U87MG cells by accumulation at SubG1 phase at 2.6 uM after 24 hrs", "format": "functional, Homo sapiens, U-87MG ATCC"}, "[20]": {"test_system": "U-87 MG", "experiment": "Cell cycle arrest in U87MG cells by accumulation at G0/G1 phase at 3.6 uM after 24 hrs", "format": "functional, Homo sapiens, U-87MG ATCC"}, "[21]": {"test_system": "U-87 MG", "experiment": "Cell cycle arrest in U87MG cells by accumulation at S phase at 3.6 uM after 24 hrs", "format": "functional, Homo sapiens, U-87MG ATCC"}, "[22]": {"test_system": "U-87 MG", "experiment": "Cell cycle arrest in U87MG cells by accumulation at G2/M phase at 3.6 uM after 24 hrs", "format": "functional, Homo sapiens, U-87MG ATCC"}, "[23]": {"test_system": "U-87 MG", "experiment": "Cell cycle arrest in U87MG cells by accumulation at SubG1 phase at 3.6 uM after 24 hrs", "format": "functional, Homo sapiens, U-87MG ATCC"}, "[24]": {"test_system": "U-87 MG", "experiment": "Cell cycle arrest in U87MG cells by accumulation at G0/G1 phase at 7.0 uM after 12 hrs", "format": "functional, Homo sapiens, U-87MG ATCC"}, "[25]": {"test_system": "U-87 MG", "experiment": "Cell cycle arrest in U87MG cells by accumulation at S phase at 7.0 uM after 12 hrs", "format": "functional, Homo sapiens, U-87MG ATCC"}, "[26]": {"test_system": "U-87 MG", "experiment": "Cell cycle arrest in U87MG cells by accumulation at G2/M phase at 7.0 uM after 12 hrs", "format": "functional, Homo sapiens, U-87MG ATCC"}, "[27]": {"test_system": "U-87 MG", "experiment": "Cell cycle arrest in U87MG cells by accumulation at SubG1 phase at 7.0 uM after 12 hrs", "format": "functional, Homo sapiens, U-87MG ATCC"}, "[28]": {"test_system": "U-87 MG", "experiment": "Cell cycle arrest in U87MG cells by accumulation at G0/G1 phase at 7.0 uM after 24 hrs", "format": "functional, Homo sapiens, U-87MG ATCC"}, "[29]": {"test_system": "U-87 MG", "experiment": "Cell cycle arrest in U87MG cells by accumulation at S phase at 7.0 uM after 24 hrs", "format": "functional, Homo sapiens, U-87MG ATCC"}, "[30]": {"test_system": "U-87 MG", "experiment": "Cell cycle arrest in U87MG cells by accumulation at G2/M phase at 7.0 uM after 24 hrs", "format": "functional, Homo sapiens, U-87MG ATCC"}, "[31]": {"test_system": "U-87 MG", "experiment": "Cell cycle arrest in U87MG cells by accumulation at SubG1 phase at 7.0 uM after 24 hrs", "format": "functional, Homo sapiens, U-87MG ATCC"}}, "note": "The source made the active and inactive calls. The calls are words filed in the database; no cut-off is given here.", "data": [{"compound": "C[C@@H]1O[C@H]2O[C@@H]3[C@H](OC[C@@H](O)[C@H]3O)OC(=O)[C@]34CCC(C)(C)CC3C3=CCC5[C@@]6(C)C[C@H](O)[C@H](O[C@@H]7O[C@H](CO)[C@@H](O)[C@H](O)[C@H]7O[C@H]7O[C@@H](COC(=O)C[C@](C)(O)CC(=O)O[C@@H]1[C@@H](O[C@@H]1OC[C@@H](O)[C@H](O)[C@H]1O)[C@H]2O)[C@H](O)[C@@H](O)[C@@H]7O)[C@@](C)(CO)C6CC[C@@]5(C)[C@]3(C)CC4", "note": "(stereo partly drawn) [TUBEIMOSIDE V]", "values": [{"measurement": "IC25", "setting": "[1]", "result": 2.6, "unit": "µM"}, {"measurement": "IC50", "setting": "[1]", "result": 3.6, "unit": "µM"}, {"measurement": "IC75", "setting": "[1]", "result": 7, "unit": "µM"}, {"measurement": "Activity", "setting": "[2]", "result": 50.1, "unit": "%"}, {"measurement": "Activity", "setting": "[3]", "result": "Active"}, {"measurement": "Activity", "setting": "[4]", "result": "Active"}, {"measurement": "Activity", "setting": "[5]", "result": "Active"}, {"measurement": "Activity", "setting": "[6]", "result": "Active"}, {"measurement": "Activity", "setting": "[7]", "result": "Active"}, {"measurement": "Activity", "setting": "[8]", "result": "Active"}, {"measurement": "Activity", "setting": "[9]", "result": 27.6, "unit": "%"}, {"measurement": "Activity", "setting": "[10]", "result": 22.3, "unit": "%"}, {"measurement": "Activity", "setting": "[11]", "result": 4.1, "unit": "%"}, {"measurement": "Activity", "setting": "[12]", "result": 51, "unit": "%"}, {"measurement": "Activity", "setting": "[13]", "result": 31.4, "unit": "%"}, {"measurement": "Activity", "setting": "[14]", "result": 17.6, "unit": "%"}, {"measurement": "Activity", "setting": "[15]", "result": 8.9, "unit": "%"}, {"measurement": "Activity", "setting": "[16]", "result": 51.3, "unit": "%"}, {"measurement": "Activity", "setting": "[17]", "result": 31, "unit": "%"}, {"measurement": "Activity", "setting": "[18]", "result": 17.7, "unit": "%"}, {"measurement": "Activity", "setting": "[19]", "result": 9.1, "unit": "%"}, {"measurement": "Activity", "setting": "[20]", "result": 53.5, "unit": "%"}, {"measurement": "Activity", "setting": "[21]", "result": 34.2, "unit": "%"}, {"measurement": "Activity", "setting": "[22]", "result": 12.3, "unit": "%"}, {"measurement": "Activity", "setting": "[23]", "result": 20.8, "unit": "%"}, {"measurement": "Activity", "setting": "[24]", "result": 53.3, "unit": "%"}, {"measurement": "Activity", "setting": "[25]", "result": 32.6, "unit": "%"}, {"measurement": "Activity", "setting": "[26]", "result": 14.1, "unit": "%"}, {"measurement": "Activity", "setting": "[27]", "result": 18.3, "unit": "%"}, {"measurement": "Activity", "setting": "[28]", "result": 53.3, "unit": "%"}, {"measurement": "Activity", "setting": "[29]", "result": 37.1, "unit": "%"}, {"measurement": "Activity", "setting": "[30]", "result": 9.6, "unit": "%"}, {"measurement": "Activity", "setting": "[31]", "result": 42.3, "unit": "%"}]}]}
